The values below come from patent publication US5464859A, “Benzospiroalkene derivatives” (Adir et Compagnie, priority 1993, dated 1995).

One test has as its system femoral arteries. The test can be described thus: In vitro contraction of dog femoral arteries (agonist concentration/effect curve). Particulars: Canis lupus familiaris, ARTERY; for EC50: femoral artery rings, dog, 37° C.; for Emax: maximum effect relative to maximum effect caused by 100 mM KCl, read-out: Max (% KCl). As to the method: (§1) In vitro study on the femoral arteries and saphenous veins of dogs
(§2) The technique used is based on that described by Fowler et at. (J. Pharmacol. Exp. Ther., 229, 712-718, 1984). Male or female mongrel dogs weighing approximately 15-25 kg were used as organ sources. The animals are anesthetized with pentrobarbital (30 mg/kg, intravenously). Incisions are made in the legs and the vessels are withdrawn. They are placed in Krebs-Ringer liquid (NaCl 118 mM, NaHCO3 25 mM, Glucose 10 mM, KCl 4.7 mM, CaCl2 1.25 mM, MgSO4 1.19 mM, KH2 PO4 1.14 mM) at room temperature and while bubbling with carbogen (95% O2, 5% CO2). These vessels are then carefully freed from their fat, then cut into rings with a width of 2 mm and mounted under a base tension of 4 g (femoral arteries) or 1 g (saphenous veins) in vessels thermostatically controlled at 37° C. containing Krebs-Ringer liquid through which carbogen is constantly bubbling. A lower hook constitutes the set point whereas the upper hook is connected to an isometric force sensor. The tension variations are digitized, stored on disk and processed by a computer system. After mounting, the organs, are left at rest for 90 minutes, rinsings being carried out every 30 min. After readjusting the base tension, a contraction is caused by a single dose of KCl (100 mM). After stabilisation, washing and returning to the base line, a contraction is provoked by a single dose of phenylephrine (submaximal concentration) in order to regularize the following contractions. After washing and returning to the base line, a concentration/effect curve is produced by addition of cumulative doses of agonist (the spacing between the doses is a half-log). This experiment makes it possible to calculate the 50% effective concentration (EC5.sbsb.0) in the following way: the tension values are first converted to percentages with respect to the maximum effect caused by 100 mM of KCl. This EC5.sbsb.0 is determined by non-linear regression by the Simplex method (M. S. Caceci, Byte, 340-362, 1984), calculated according to the model of the law of mass action of L. Michaelis and M. L. Menten (Biochem. Zeitschrifft, 49, 333-369, 1913). E=(Emax*C^n)(EC^n +C^n) where E=effect, Emax=maximum effect, C=concentration, EC=EC5.sbsb.0 and n=Hill number.

For the next test, the system named is saphenous veins. Nature of the test: In vitro contraction of dog saphenous veins (agonist concentration/effect curve). Particulars: Canis lupus familiaris, VEIN; for Emax: maximum effect relative to maximum effect caused by 100 mM KCl, read-out: Max (% KCl); for EC50: saphenous vein rings, dog, 37° C. As to the method:
as §1, §2

In the next test the test system is 1 or 2 -adrenergic. The test can be described thus: In vivo study on amyelous rats (arterial pressure increase, with or without prazosin or yohimbine). The arrangement: species or system Male Sprague-Dawley rats. The following applies: for ED (20 mmHg): Rattus norvegicus, iv, Control (no antagonist), increasing cumulative doses every 20 seconds, tertatolol pretreatment, read-out: C20 (concentration which increases the pressure by 20 mmHg); for Ratio C20 treated/C20 control: pretreated with yohimbine (1 mg/kg). From the text: In vivo study on AMYELOUS RATS
Male Sprague-Dawley rats (300-400 g) are anesthatized with ether. A cannula is inserted in the trachea, the spinal cord is destroyed using a steel rod and the animal is immediately placed under artificial respiration. The vagus nerves are sectioned. The carotid arteries are ligatured and a catheter is placed in one and is used to record the arterial pressure. Three other catheters are placed in the jugular veins and the vein of the penis and are used for injections. The temperature of the animals is maintained at 36° C. The animal is pretreated with an injection of tertatolol ([…]). The animal is also pretreated 10 minutes afterwards with prazosin ([…]) or yohimbine (1 mg/kg) when it is wished to determine the 1 or 2 -adrenergic properties of the product. Ten minutes later, increasing cumulative doses of product are injected every 20 seconds. The medal pressure variations are detected using a P23XL Statham pressure cell and are recorded. The pressure values are expressed in mmHg. This experiment makes it possible to calculate the concentration which increases the pressure by 20 mmHg (C2.sbsb.0) by non-linear regression according to the model of the Michaelis and Menten mass action law as described above. The maximum effect obtained is then converted to a percentage with respect to the maximum effect caused by phenylephrine. The 1 or 2 -adrenergic components of the product are estimated using the ratio of the C2.sbsb.0 values obtained in the presence of prazosin or of yohimbine to the values obtained in the absence of these antagonists. In amyelous rats, the products of the invention induce hypertensions which are inhibited more by prazosin than by yohimbine.

The EC50 is the concentration that produces a half-maximal response.

The structures appear in SMILES notation. Counter-ions that a name gives are not always drawn.

With `COc1ccc(OC)c2c1CCC1(CNC=N1)C2` (single isomer, unassigned) [Example 7, Spiro[(1,3-diazacyclopent-1-ene)-5,2'-(5',8'-dimethoxy-1',2',3',4'-tetrahydro-naphthalene)]fumarate, isomer α], in the test on femoral arteries, the midpoint of the response, the EC50, lay at 30 nM and the Emax stood at 95%. In the test with saphenous veins, the Emax worked out at 109% and the half-maximal effective concentration (EC50) is 120 nM.

For `CCOc1ccc(OCC)c2c1CCC1(CNC=N1)C2` (stereo not drawn) [Example 3, Spiro[(1,3-diazacyclopent-1-ene)-5,2'-(5',8'-diethoxy-1',2',3',4'-tetrahydronaphthalene) fumarate], in the test on 1 or 2 -adrenergic, the ED (20 mmHg) was found to be 0.6 µg/kg and the “Ratio C20 treated/C20 control” value was 8.

On to `COc1ccc(OC)c2c1CCC1(CNC=N1)C2` (stereo not drawn) [Example 1, Spiro[(1,3-diazacyclopent-1-ene)-5,2'-(5',8'-dimethoxy-1',2',3',4'-tetrahydronaphthalene)]fumarate], for which, in the test with femoral arteries, the EC50 came to 160 nM and the Emax stood at 72%. In addition, the “Ratio C20 treated/C20 control” value in the test on 1 or 2 -adrenergic was determined as 11. In the test with saphenous veins, the Emax was 100% and the response was half-maximal at 200 nM (EC50).

As to `COc1ccc(SC)c2c1CC1(CC2)CNC=N1` (stereo not drawn) [Example 6, Spiro[(1,3-diazacyclopent-1-ene)-5,2'-(5'-methylthio-8'-methoxy-1',2',3',4'-tetrahydronaphthalene)]fumarate], in the test with femoral arteries, the EC50 was 80 nM and the Emax was 85%. Moreover, in the test with saphenous veins, the Emax came to 98% and a half-maximal effect (EC50) was put at 800 nM.

`COc1cccc2c1CCC1(CNC=N1)C2` (stereo not drawn) [Example 5, Spiro[(1,3-diazacyclopent-1-ene)-5,2'-(5'-methoxy-1',2',3',4'-tetrahydronaphthalene)]]: in the test with femoral arteries, the EC50 was 1500 nM and the Emax amounted to 93%. Further, in the test on saphenous veins, the Emax is 100% and the concentration for a half-maximal effect (EC50) is 6400 nM.

For `CCOc1ccc(OC)c2c1CCC1(CNC=N1)C2` (stereo not drawn) [Example 2, Spiro[(1,3-diazacyclopent-1-ene)-5,2'-(5'-ethoxy-8'-methoxy-1',2',3',4'-tetrahydronaphthalene)]fumarate], in the test on 1 or 2 -adrenergic, the ED (20 mmHg) came to 0.06 µg/kg and the “Ratio C20 treated/C20 control” value was found to be 5.
